PubChem BioAssay (NCI)
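The compound was tested at five concentrations on cells cultured in 96-well plates, with a 48-hour exposure period. Abbreviation: GI50, concentration required for 50% inhibition of growth. TGI: concentration producing complete growth inhibition.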

Tests used:
Assay in all cases: NCI anticancer screen, dose series, 48 h
786-0 renal = tested on: 786-0 renal
A549 NSCLC = tested on: A549 NSCLC
ACHN renal = tested on: ACHN renal
BT-549 breast = tested on: BT-549 breast
CAKI-1 renal = tested on: CAKI-1 renal
CCRF-CEM leukemia = tested on: CCRF-CEM leukemia
COLO 205 colon = tested on: COLO 205 colon
DU-145 prostate = tested on: DU-145 prostate
EKVX NSCLC = tested on: EKVX NSCLC
HCT-15 colon = tested on: HCT-15 colon
HL-60(TB) leukemia = tested on: HL-60(TB) leukemia
HOP-92 NSCLC = tested on: HOP-92 NSCLC
HS 578T breast = tested on: HS 578T breast
IGROV1 ovarian = tested on: IGROV1 ovarian
K-562 leukemia = tested on: K-562 leukemia
KM12 colon = tested on: KM12 colon
LOX IMVI melanoma = tested on: LOX IMVI melanoma
M14 melanoma = tested on: M14 melanoma
MCF7 breast = tested on: MCF7 breast
MDA-MB-231 breast = tested on: MDA-MB-231 breast
MDA-MB-435 = tested on: MDA-MB-435
MOLT-4 leukemia = tested on: MOLT-4 leukemia
NCI-H226 lung = tested on: NCI-H226 lung
NCI-H460 lung = tested on: NCI-H460 lung
NCI-H522 lung = tested on: NCI-H522 lung
OVCAR-3 ovarian = tested on: OVCAR-3 ovarian
OVCAR-4 ovarian = tested on: OVCAR-4 ovarian
OVCAR-5 ovarian = tested on: OVCAR-5 ovarian
OVCAR-8 ovarian = tested on: OVCAR-8 ovarian
PC-3 prostate = tested on: PC-3 prostate
RPMI-8226 leukemia = tested on: RPMI-8226 leukemia
RXF 393 renal = tested on: RXF 393 renal
SF-268 CNS = tested on: SF-268 CNS
SF-295 CNS = tested on: SF-295 CNS
SF-539 CNS = tested on: SF-539 CNS
SK-MEL-2 melanoma = tested on: SK-MEL-2 melanoma
SK-MEL-5 melanoma = tested on: SK-MEL-5 melanoma
SK-OV-3 ovarian = tested on: SK-OV-3 ovarian
SN12C renal = tested on: SN12C renal
SNB-19 CNS = tested on: SNB-19 CNS
SNB-75 CNS = tested on: SNB-75 CNS
SR leukemia = tested on: SR leukemia
SW-620 colon = tested on: SW-620 colon
TK-10 renal = tested on: TK-10 renal
U251 CNS = tested on: U251 CNS
UACC-257 melanoma = tested on: UACC-257 melanoma
UACC-62 melanoma = tested on: UACC-62 melanoma
UO-31 renal = tested on: UO-31 renal

Cc1[nH][nH]c(=O)c1C=Nc1ccc(-c2nc3ccccc3[nH]2)cc1
GI50 (786-0 renal): 18.9 µM
TGI (786-0 renal): 38.3 µM
GI50 (A549 NSCLC): 42.9 µM
TGI (A549 NSCLC): > 100 µM
GI50 (ACHN renal): 30.1 µM
TGI (ACHN renal): > 100 µM
GI50 (BT-549 breast): 36.2 µM
TGI (BT-549 breast): 97.1 µM
GI50 (CAKI-1 renal): 19.1 µM
TGI (CAKI-1 renal): 51.2 µM
GI50 (CCRF-CEM leukemia): 0.066 µM
TGI (CCRF-CEM leukemia): > 100 µM
GI50 (COLO 205 colon): 19.5 µM
TGI (COLO 205 colon): 48.1 µM
GI50 (DU-145 prostate): 34.8 µM
TGI (DU-145 prostate): > 100 µM
GI50 (EKVX NSCLC): 19.8 µM
TGI (EKVX NSCLC): 51.1 µM
GI50 (HCT-15 colon): 22 µM
TGI (HCT-15 colon): 55.6 µM
GI50 (HL-60(TB) leukemia): 22.6 µM
TGI (HL-60(TB) leukemia): > 100 µM
GI50 (HOP-92 NSCLC): > 100 µM
TGI (HOP-92 NSCLC): > 100 µM
GI50 (HS 578T breast): 29 µM
TGI (HS 578T breast): 63.9 µM
GI50 (IGROV1 ovarian): 24.6 µM
TGI (IGROV1 ovarian): > 100 µM
GI50 (K-562 leukemia): 27.4 µM
TGI (K-562 leukemia): 87.2 µM
GI50 (KM12 colon): 18.3 µM
TGI (KM12 colon): 89.7 µM
GI50 (LOX IMVI melanoma): 16.8 µM
TGI (LOX IMVI melanoma): 30.5 µM
GI50 (M14 melanoma): 30.6 µM
TGI (M14 melanoma): 50.9 µM
TGI (MCF7 breast): 0.612 µM
GI50 (MDA-MB-231 breast): 12.8 µM
TGI (MDA-MB-231 breast): 33.8 µM
GI50 (MDA-MB-435): 16.8 µM
TGI (MDA-MB-435): 33.7 µM
GI50 (MOLT-4 leukemia): 52 µM
TGI (MOLT-4 leukemia): > 100 µM
GI50 (NCI-H226 lung): 33.7 µM
TGI (NCI-H226 lung): > 100 µM
GI50 (NCI-H460 lung): 33.3 µM
TGI (NCI-H460 lung): > 100 µM
GI50 (NCI-H522 lung): 31.1 µM
TGI (NCI-H522 lung): 78.1 µM
GI50 (OVCAR-3 ovarian): 14.9 µM
TGI (OVCAR-3 ovarian): 36 µM
GI50 (OVCAR-4 ovarian): 24.4 µM
TGI (OVCAR-4 ovarian): 76.5 µM
GI50 (OVCAR-5 ovarian): 46 µM
TGI (OVCAR-5 ovarian): > 100 µM
GI50 (OVCAR-8 ovarian): 20.7 µM
TGI (OVCAR-8 ovarian): 54.6 µM
GI50 (PC-3 prostate): 80.8 µM
TGI (PC-3 prostate): > 100 µM
GI50 (RPMI-8226 leukemia): 38.2 µM
TGI (RPMI-8226 leukemia): > 100 µM
GI50 (RXF 393 renal): 11.1 µM
TGI (RXF 393 renal): 46.6 µM
GI50 (SF-268 CNS): 14.4 µM
TGI (SF-268 CNS): 51.1 µM
GI50 (SF-295 CNS): 18.4 µM
TGI (SF-295 CNS): 42.3 µM
GI50 (SF-539 CNS): 22.2 µM
TGI (SF-539 CNS): 41.6 µM
GI50 (SK-MEL-2 melanoma): 23.3 µM
TGI (SK-MEL-2 melanoma): 48 µM
GI50 (SK-MEL-5 melanoma): 18 µM
TGI (SK-MEL-5 melanoma): 36.2 µM
GI50 (SK-OV-3 ovarian): 41.9 µM
TGI (SK-OV-3 ovarian): > 100 µM
GI50 (SN12C renal): 36.7 µM
TGI (SN12C renal): 96.5 µM
GI50 (SNB-19 CNS): 22.6 µM
TGI (SNB-19 CNS): 57.3 µM
GI50 (SNB-75 CNS): 19.6 µM
TGI (SNB-75 CNS): 40.5 µM
GI50 (SR leukemia): 39.7 µM
TGI (SR leukemia): 97.1 µM
GI50 (SW-620 colon): 25.6 µM
TGI (SW-620 colon): 55.7 µM
GI50 (TK-10 renal): > 100 µM
TGI (TK-10 renal): > 100 µM
GI50 (U251 CNS): 19 µM
TGI (U251 CNS): 44.7 µM
GI50 (UACC-257 melanoma): 19.9 µM
TGI (UACC-257 melanoma): 42.1 µM
GI50 (UACC-62 melanoma): 15.5 µM
TGI (UACC-62 melanoma): 38 µM
GI50 (UO-31 renal): 31.8 µM
TGI (UO-31 renal): > 100 µM
